Laboratory results taken from patent US10385022B2, “3-amino-pyridines as GPBAR1 agonists” (HOFFMANN-LA ROCHE INC., priority 2011, dated 2019).

The compounds below were run against human GPBAR1 receptor (Homo sapiens (Human), UniProt Q8TDU6) (assay: functional cAMP assay in CHO-dhfr(minus) cells expressing human GPBAR1 receptors). Details: CHO-dhfr(minus) cells expressing human GPBAR1, 30 min at 30° C.
Format: cell-based
Outline: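 Functional cAMP responses in a human GPBAR1-transfected CHO-dhfr- clone, picked using lithocholic acid as agonist, gave the EC50 values. Parallel testing in untransfected CHO cells served as a specificity control.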

human GPBAR1 receptor, sequence (Q8TDU6 whole entry): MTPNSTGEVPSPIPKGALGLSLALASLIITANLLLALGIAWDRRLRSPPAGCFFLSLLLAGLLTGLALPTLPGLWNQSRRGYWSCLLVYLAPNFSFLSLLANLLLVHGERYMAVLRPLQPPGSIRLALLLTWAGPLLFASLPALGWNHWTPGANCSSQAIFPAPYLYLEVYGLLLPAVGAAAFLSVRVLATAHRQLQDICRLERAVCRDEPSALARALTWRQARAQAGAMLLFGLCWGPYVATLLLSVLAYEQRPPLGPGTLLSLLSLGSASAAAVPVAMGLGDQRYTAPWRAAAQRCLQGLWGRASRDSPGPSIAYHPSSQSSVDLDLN

SMILES	EC50 [nM]
CN(C(=O)c1cc(C(F)(F)F)cc(C(F)(F)F)c1)c1cnc(Cl)cc1-c1ncccc1Cl [Example 73, N-(3,6′-Dichloro-[2,4′]bipyridinyl-3′-yl)-N-methyl-3,5-bis-trifluoromethyl-benzamide]	1830
CCc1ccccc1-c1ccncc1N(C)C(=O)c1cc(C(F)(F)F)cc(C(F)(F)F)c1 [Example 168, N-[4-(2-Ethyl-phenyl)-pyridin-3-yl]-N-methyl-3,5-bis-trifluoromethyl-benzamide]	41
CN(C(=O)c1cc(C(F)(F)F)cc(C(F)(F)F)c1)c1cnccc1-c1ccc(F)cc1OCCO [Example 52, N-{4-[4-Fluoro-2-(2-hydroxy-ethoxy)-phenyl]-pyridin-3-yl}-N-methyl-3,5-bis-trifluoromethyl-benzamide]	463
CN(C(=O)c1cc(C(F)(F)F)cc(S(C)(=O)=O)c1)c1cnccc1-c1cccnc1OCC(F)(F)F [Example 279, 3-Methanesulfonyl-N-methyl-N-[2-(2,2,2-trifluoro-ethoxy)-[3,4′]bipyridinyl-3′-yl]-5-trifluoromethyl-benzamide]	77
CN(C(=O)c1cc(C(F)(F)F)cc(C(F)(F)F)c1)c1cnccc1-c1cc(F)ccc1F [Example 61, N-[4-(2,5-Difluoro-phenyl)-pyridin-3-yl]-N-methyl-3,5-bis-trifluoromethyl-benzamide]	72
COc1cc(-c2ccncc2N(C)C(=O)c2cc(C(F)(F)F)cc(S(C)(=O)=O)c2)c(F)cc1F [Example 284, N-[4-(2,4-Difluoro-5-methoxy-phenyl)-pyridin-3-yl]-3-methanesulfonyl-N-methyl-5-trifluoromethyl-benzamide]	353
Cc1ccccc1-c1ccncc1N(C)C(=O)c1ccc(C(F)(F)F)c(Cl)c1 [Example 97, 3-Chloro-N-methyl-N-(4-o-tolyl-pyridin-3-yl)-4-trifluoromethyl-benzamide]	721
Cc1ccccc1-c1cc(N)ncc1N(C)C(=O)c1cc(C(F)(F)F)cc(C(F)(F)F)c1 [Example 16]	184
CS(=O)(=O)c1cc(C(=O)N(CC#N)c2cnccc2-c2ccccc2Cl)cc(C(F)(F)F)c1 [Example 286, N-[4-(2-Chloro-phenyl)-pyridin-3-yl]-N-cyanomethyl-3-methanesulfonyl-5-trifluoromethyl-benzamide]	379
COc1cc(F)ccc1-c1ccncc1N(CC(F)(F)F)C(=O)c1cc(C(F)(F)F)cc(S(=O)(=O)N(C)C)c1 [Example 133, 3-Dimethylsulfamoyl-N-[4-(4-fluoro-2-methoxy-phenyl)-pyridin-3-yl]-N-(2,2,2-trifluoro-ethyl)-5-trifluoromethyl-benzamide]	39
Cc1cc(F)ccc1-c1ccncc1N(C)C(=O)c1cc(C(F)(F)F)cc(C(F)(F)F)c1 [Example 23, N-[4-(4-Fluoro-2-methyl-phenyl)-pyridin-3-yl]-N-methyl-3,5-bis-trifluoromethyl-benzamide]	38
CN(C(=O)c1cc(C(F)(F)F)cc(S(C)(=O)=O)c1)c1cnccc1-c1ccccc1OC1CCC1 [Example 277, N-[4-(2-Cyclobutoxy-phenyl)-pyridin-3-yl]-3-methanesulfonyl-N-methyl-5-trifluoromethyl-benzamide]	8
Cc1ccccc1-c1ccncc1N(C)C(=O)c1ccc(F)c(C(F)(F)F)c1 [Example 5, 4-Fluoro-N-methyl-N-(4-o-tolyl-pyridin-3-yl)-5-trifluoromethyl-benzamide]	112
Cc1ccccc1-c1cc(Cl)ncc1N(C)C(=O)c1cc(C(F)(F)F)cc(C(F)(F)F)c1 [Example 12, N-(6-Chloro-4-o-tolyl-pyridin-3-yl)-N-methyl-3,5-bis-trifluoromethyl-benzamide]	349
COC(=O)CN(C(=O)c1cc(C(F)(F)F)nc(C(F)(F)F)c1)c1cnccc1-c1ccccc1F [Example 196, Methyl 2-(N-(4-(2-fluorophenyl)pyridin-3-yl)-2,6-bis(trifluoromethyl)isonicotinamido)acetate]	23
COc1cc(F)ccc1-c1ccncc1N(C)C(=O)c1cc(C2CC2)cc(S(C)(=O)=O)c1 [Example 260, 3-Cyclopropyl-N-[4-(4-fluoro-2-methoxy-phenyl)-pyridin-3-yl]-5-methanesulfonyl-N-methyl-benzamide]	153
O=C(c1cc(C(F)(F)F)cc(C(F)(F)F)c1)N(CC(F)F)c1cnccc1-c1ccccc1Cl [Example 116, N-[4-(2-Chloro-phenyl)-pyridin-3-yl]-N-(2,2-difluoro-ethyl)-3,5-bis-trifluoromethyl-benzamide]	88
COC(=O)c1ccc(C)c(-c2ccncc2N(C)C(=O)c2cc(C(F)(F)F)cc(C(F)(F)F)c2)c1 [Example 83, 3-{3-[(3,5-Bis-trifluoromethyl-benzoyl)-methyl-amino]-pyridin-4-yl}-4-methyl-benzoic acid methyl ester]	376
COc1ccc(F)cc1-c1ccncc1N(C)C(=O)c1cc(C(F)(F)F)cc(C(F)(F)F)c1 [Example 58, N-[4-(5-Fluoro-2-methoxy-phenyl)-pyridin-3-yl]-N-methyl-3,5-bis-trifluoromethyl-benzamide]	26
COc1cc(F)ccc1-c1cc(Cl)ncc1N(C)C(=O)c1cc(C(F)(F)F)cc(S(C)(=O)=O)c1 [Example 201, N-[6-Chloro-4-(4-fluoro-2-methoxy-phenyl)-pyridin-3-yl]-3-methanesulfonyl-N-methyl-5-trifluoromethyl-benzamide]	267
O=C(NCCN(C(=O)c1cc(C(F)(F)F)cc(C(F)(F)F)c1)c1cnccc1-c1ccccc1Cl)OCc1ccccc1 [Example 125, (2-{(3,5-Bis-trifluoromethyl-benzoyl)-[4-(2-chloro-phenyl)-pyridin-3-yl]-amino}-ethyl)-carbamic acid benzyl ester]	1490
COc1cc(F)ccc1-c1cc(C)ncc1N(C)C(=O)c1cc(SC2COC2)cc(C(F)(F)F)c1 [Example 310, N-[4-(4-Fluoro-2-methoxy-phenyl)-6-methyl-pyridin-3-yl]-N-methyl-3-(oxetan-3-ylsulfanyl)-5-trifluoromethyl-benzamide]	41
COc1cc(F)ccc1-c1ccncc1N(C)C(=O)c1cc(C(F)(F)F)cc(S(=O)(=O)CCCC(=O)O)c1 [Example 247, 4-(3-{[4-(4-Fluoro-2-methoxy-phenyl)-pyridin-3-yl]-methyl-carbamoyl}-5-trifluoromethyl-benzenesulfonyl)-butyric acid]	413
COc1cc(F)ccc1-c1ccncc1N(CC1(C)COC1)C(=O)c1cc(C(F)(F)F)nc(C(F)(F)F)c1 [Example 207, N-[4-(4-Fluoro-2-methoxy-phenyl)-pyridin-3-yl]-N-(3-methyl-oxctan-3-ylmethyl)-2,6-bis-trifluoromethyl-isonicotinamide]	318
Cc1ccccc1-c1ccncc1N(C)C(=O)c1cc(NCCO)cc(C(F)(F)F)c1 [Example 271, 3-(2-Hydroxy-ethylamino)-N-methyl-N-(4-o-tolyl-pyridin-3-yl)-5-trifluoromethyl-benzamide]	3130
COc1cc(F)c(F)cc1-c1ccncc1N(C)C(=O)c1cc(C(F)(F)F)nc(C(F)(F)F)c1 [Example 144, N-[4-(4,5-Difluoro-2-methoxy-phenyl)-pyridin-3-yl]-N-methyl-2,6-bis-trifluoromethyl-isonicotinamide]	22
